Entries after “also recorded” stand apart in the source; their conditions may differ.

14 compounds from patent US12065442B2, “Tropomyosin receptor kinase (TRK) degradation compounds and methods of use” (Cullgen (Shanghai), Inc., priority 2018, dated 2024) can be followed below.

The first test concerns KM12 cells. Description: Cell viability assay (CellTiter-Glo) in KM12 cells. It is filed as cell-based. The following applies: 500 nM, 12-point 2-fold serial dilution, 3 days (FIG. 4A). (In general: In ATP-based viability assays light output follows the ATP content of the culture.)
In the case of `O=C1CCC(N2C(=O)c3cccc(NCCOCCOCCOCCC(=O)N4CCN(c5ccc(C(=O)Nc6n[nH]c7ccc(Cc8cc(F)cc(F)c8)cc67)c(NC6CCOCC6)c5)CC4)c3C2=O)C(=O)N1` (stereo not drawn) [CPD-057, N-(5-(3,5-Difluorobenzyl)-1H-indazol-3-yl)-4-(4-(3-(2-(2-(2-((2-(2,6-dioxopiperidin-3-yl)-1,3-dioxoisoindolin-4-yl)amino)ethoxy)ethoxy)ethoxy)propanoyl)piperazin-1-yl)-2-((tetrahydro-2H-pyran-4-yl)amino)benzamide], the “viability of KM12 cells” value is reported as “inhibited the viability; also recorded: dose-dependently suppressed viability”.

The test is the same for the next values; noted with them: Homo sapiens, 72 h; Table 2; KM12 cell viability, CellTiter-Glo, 3 days; read-out: IC50.
Turning to `O=C1CCC(N2C(=O)c3cccc(NCCCC(=O)N4CCN(c5cccc(-c6cnc7ccc(N8CCC[C@@H]8c8cccc(F)c8)nn67)n5)CC4)c3C2=O)C(=O)N1` (stereo partly drawn) [CPD-013, 2-(2,6-Dioxopiperidin-3-yl)-4-((4-(4-(6-(6-((R)-2-(3-fluorophenyl)pyrrolidin-1-yl)imidazo[1,2-b]pyridazin-3-yl)pyridin-2-yl)piperazin-1-yl)-4-oxobutyl)amino)isoindoline-1,3-dione], the IC50 was 10.2 nM.

Regarding `Cc1ncsc1-c1ccc(CNC(=O)[C@@H]2C[C@@H](O)CN2C(=O)[C@@H](NC(=O)CCOCCC(=O)N2CCN(c3ccc(C(=O)Nc4n[nH]c5ccc(Cc6cc(F)cc(F)c6)cc45)c(NC4CCOCC4)c3)CC2)C(C)(C)C)cc1` [CPD-048, (2S,4R)-1-((S)-2-(3-(3-(4-(4-((5-(3,5-Difluorobenzyl)-1H-indazol-3-yl)carbamoyl)-3-((tetrahydro-2H-pyran-4-yl)amino)phenyl)piperazin-1-yl)-3-oxopropoxy)propanamido)-3,3-dimethylbutanoyl)-4-hydroxy-N-(4-(4-methylthiazol-5-yl)benzyl)pyrrolidine-2-carboxamide], the IC50 was over 1000 nM.

Regarding `O=C1CCC(N2C(=O)c3cccc(NCCOCCOCCOCCOCCC(=O)N4CCN(c5cccc(-c6cnc7ccc(N8CCC[C@@H]8c8cccc(F)c8)nn67)n5)CC4)c3C2=O)C(=O)N1` (stereo partly drawn) [CPD-021, 2-(2,6-Dioxopiperidin-3-yl)-4-((15-(4-(6-(6-((R)-2-(3-fluorophenyl)pyrrolidin-1-yl)imidazo[1,2-b]pyridazin-3-yl)pyridin-2-yl)piperazin-1-yl)-15-oxo-3,6,9,12-tetraoxapentadecyl)amino)isoindoline-1,3-dione], the half-maximal inhibitory concentration (IC50) turned out to be 27.4 nM.

Take `O=C1CCC(N2C(=O)c3cccc(NCCOCCOCCOCCC(=O)N4CCN(c5ccc(C(=O)Nc6n[nH]c7ccc(Cc8cc(F)cc(F)c8)cc67)c(NC6CCOCC6)c5)CC4)c3C2=O)C(=O)N1` (stereo not drawn) [CPD-057, N-(5-(3,5-Difluorobenzyl)-1H-indazol-3-yl)-4-(4-(3-(2-(2-(2-((2-(2,6-dioxopiperidin-3-yl)-1,3-dioxoisoindolin-4-yl)amino)ethoxy)ethoxy)ethoxy)propanoyl)piperazin-1-yl)-2-((tetrahydro-2H-pyran-4-yl)amino)benzamide]: the IC50 stood at 6.4 nM.

On to `O=C1CCC(N2C(=O)c3cccc(NCCCCCCCC(=O)N4CCN(c5ccc(C(=O)Nc6n[nH]c7ccc(Cc8cc(F)cc(F)c8)cc67)c(NC6CCOCC6)c5)CC4)c3C2=O)C(=O)N1` (stereo not drawn) [CPD-052, N-(5-(3,5-difluorobenzyl)-1H-indazol-3-yl)-4-(4-(8-((2-(2,6-dioxopiperidin-3-yl)-1,3-dioxoisoindolin-4-yl)amino)octanoyl)piperazin-1-yl)-2-((tetrahydro-2H-pyran-4-yl)amino)benzamide], for which the IC50 is 60 nM.

Regarding `Cc1ncsc1-c1ccc(CNC(=O)[C@@H]2C[C@@H](O)CN2C(=O)[C@@H](NC(=O)CCCCC(=O)N2CCN(c3ccc(C(=O)Nc4n[nH]c5ccc(Cc6cc(F)cc(F)c6)cc45)c(NC4CCOCC4)c3)CC2)C(C)(C)C)cc1` [CPD-044, (2S,4R)-1-((S)-2-(6-(4-(4-((5-(3,5-difluorobenzyl)-1H-indazol-3-yl)carbamoyl)-3-((tetrahydro-2H-pyran-4-yl)amino)phenyl)piperazin-1-yl)-6-oxohexanamido)-3,3-dimethylbutanoyl)-4-hydroxy-N-(4-(4-methylthiazol-5-yl)benzyl)pyrrolidine-2-carboxamide], the IC50 was found to be 73 nM.

Consider `Cc1ncsc1-c1ccc(CNC(=O)[C@@H]2C[C@@H](O)CN2C(=O)[C@@H](NC(=O)CCCCCCC(=O)N2CCN(c3ccc(C(=O)Nc4n[nH]c5ccc(Cc6cc(F)cc(F)c6)cc45)c(NC4CCOCC4)c3)CC2)C(C)(C)C)cc1` [CPD-033, (2S,4R)-1-((S)-2-(8-(4-(4-((5-(3,5-difluorobenzyl)-1H-indazol-3-yl)carbamoyl)-3-((tetrahydro-2H-pyran-4-yl)amino)phenyl)piperazin-1-yl)-8-oxooctanamido)-3,3-dimethylbutanoyl)-4-hydroxy-N-(4-(4-methylthiazol-5-yl)benzyl)pyrrolidine-2-carboxamide], for which the IC50 is 100 nM.

The test is the same for the next values; noted with them: Homo sapiens, 72 h; Table 3; KM12 cell viability, CellTiter-Glo, 3 days; read-out: IC50.
As for `O=C1CCC(N2Cc3ccc(C#CC(=O)N4CCN(c5cccc(-c6cnc7ccc(N8CCC[C@@H]8c8cccc(F)c8)nn67)n5)CC4)cc3C2=O)C(=O)N1` (stereo partly drawn) [TR-202, 3-(6-(3-(4-(6-(6-((R)-2-(3-fluorophenyl)pyrrolidin-1-yl)imidazo[1,2-b]pyridazin-3-yl)pyridin-2-yl)piperazin-1-yl)-3-oxoprop-1-yn-1-yl)-1-oxoisoindolin-2-yl)piperidine-2,6-dione], the IC50 turned out to be 4.3 nM.

As to `O=C1CCC(N2C(=O)c3ccc(NCCOCCC(=O)N4CCN(c5ccc(C(=O)Nc6n[nH]c7ccc(Cc8cc(F)cc(F)c8)cc67)c(NC6CCOCC6)c5)CC4)cc3C2=O)C(=O)N1` (stereo not drawn) [TR-143], the concentration for half-maximal inhibition (IC50) came out at 5.6 nM.

For `O=C1CCC(N2Cc3ccc(NCC(=O)N4CCN(c5cccc(-c6cnc7ccc(N8CCC[C@@H]8c8cccc(F)c8)nn67)n5)CC4)cc3C2=O)C(=O)N1` (stereo partly drawn) [TR-189, 3-(6-((2-(4-(6-(6-((R)-2-(3-fluorophenyl)pyrrolidin-1-yl)imidazo[1,2-b]pyridazin-3-yl)pyridin-2-yl)piperazin-1-yl)-2-oxoethyl)amino)-1-oxoisoindolin-2-yl)piperidine-2,6-dione], the IC50 is 2.5 nM.

With `O=C(CN1CCN(c2ccc(C(=O)Nc3n[nH]c4ccc(Cc5cc(F)cc(F)c5)cc34)c(NC3CCOCC3)c2)CC1)NCCNc1ccc2c(c1)C(=O)N(C1CCC(=O)NC1=O)C2=O` (stereo not drawn) [TR-165, N-(5-(3,5-Difluorobenzyl)-1H-indazol-3-yl)-4-(4-(2-((2-((2-(2,6-dioxopiperidin-3-yl)-1,3-dioxoisoindolin-5-yl)amino)ethyl)amino)-2-oxoethyl)piperazin-1-yl)-2-((tetrahydro-2H-pyran-4-yl)amino)benzamide], the IC50 was determined as 3.5 nM.

Regarding `O=C(CN1CCN(c2ccc(C(=O)Nc3n[nH]c4ccc(Cc5cc(F)cc(F)c5)cc34)c(NC3CCOCC3)c2)CC1)NCCOCCOCCOCCOCCNc1ccc2c(c1)C(=O)N(C1CCC(=O)NC1=O)C2=O` (stereo not drawn) [TR-160, N-(5-(3,5-Difluorobenzyl)-1H-indazol-3-yl)-4-(4-(17-((2-(2,6-dioxopiperidin-3-yl)-1,3-dioxoisoindolin-5-yl)amino)-2-oxo-6,9,12,15-tetraoxa-3-azaheptadecyl)piperazin-1-yl)-2-((tetrahydro-2H-pyran-4-yl)amino)benzamide], the 50% inhibitory concentration (IC50) turned out to be 4.8 nM.

The test is the same for the next values; noted with them: Homo sapiens, 72 h; Table 4; KM12 cell viability, CellTiter-Glo, 3 days; read-out: IC50.
Turning to `Cn1c(=O)n(C2CCC(=O)NC2=O)c2cccc(OCCCN3CCN(c4cccc(-c5cnc6ccc(N7CCC[C@@H]7c7cccc(F)c7)nn56)n4)CC3)c21` (stereo partly drawn) [TR-245, 3-(4-(3-(4-(6-(6-((R)-2-(3-fluorophenyl)pyrrolidin-1-yl)imidazo[1,2-b]pyridazin-3-yl)pyridin-2-yl)piperazin-1-yl)propoxy)-3-methyl-2-oxo-2,3-dihydro-1H-benzo[d]imidazol-1-yl)piperidine-2,6-dione], the IC50 was over 500 nM.

As to `Cn1c(=O)n(C2CCC(=O)NC2=O)c2cccc(CCCN3CCN(c4cccc(-c5cnc6ccc(N7CCC[C@@H]7c7cccc(F)c7)nn56)n4)CC3)c21` (stereo partly drawn) [TR-240, 3-(4-(3-(4-(6-(6-((R)-2-(3-fluorophenyl)pyrrolidin-1-yl)imidazo[1,2-b]pyridazin-3-yl)pyridin-2-yl)piperazin-1-yl)propyl)-3-methyl-2-oxo-2,3-dihydro-1H-benzo[d]imidazol-1-yl)piperidine-2,6-dione], the IC50 was found to be 16 nM.

In general, IC50 refers to the concentration needed to halve the response being measured.
